The values below come from patent US9732119B2, “Immunomodulators” (BRISTOL-MYERS SQUIBB COMPANY, priority 2014, dated 2017).

pIC50: −log10 of the molar value. Positions of bridges follow the written chain, without caps; N, C: chain ends. Non-standard residues stand in square brackets, D forms with d. Residues, ends and D or L forms follow the SMILES beside them. Trp(1-CH2COOH) = N[C@@H](Cc1cn(CC(=O)O)c2ccccc12)C(=O)O; Phe(4-Cl) = N[C@@H](Cc1ccc(Cl)cc1)C(=O)O; Phe(4-F) = N[C@@H](Cc1ccc(F)cc1)C(=O)O; Phe(4-Me) = Cc1ccc(C[C@H](N)C(=O)O)cc1; Hyp = O=C(O)[C@@H]1C[C@@H](O)CN1; NMeNle = CCCC[C@H](NC)C(=O)O; dOrn = NCCC[C@@H](N)C(=O)O; Pip = O=C(O)[C@@H]1CCCCN1; Dab = NCC[C@H](N)C(=O)O; Dap = NC[C@H](N)C(=O)O; Ava = NCCCCC(=O)O

As usually defined, the pIC50 is the IC50 on a negative log10 scale, so that one unit is a factor of ten. Lower therefore signals a large IC50.

The target in the test is T1, PD-1-Ig binding to PD-L1-TVMV-His (PD-L1-His) (Homo sapiens, UniProt Q9NZQ7).
T1 construct: hPDL1(19-239)-TVMV-His; made in house; host or cells: HEK293T cells
T1 sequence (Q9NZQ7 with tags, fused parts or gaps): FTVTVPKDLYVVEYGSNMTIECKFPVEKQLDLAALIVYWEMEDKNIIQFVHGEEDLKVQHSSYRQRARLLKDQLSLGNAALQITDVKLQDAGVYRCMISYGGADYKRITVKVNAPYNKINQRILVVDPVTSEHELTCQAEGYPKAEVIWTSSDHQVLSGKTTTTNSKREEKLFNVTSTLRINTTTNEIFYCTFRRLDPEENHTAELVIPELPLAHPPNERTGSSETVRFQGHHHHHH
Description: PD-1/PD-L1 Homogenous Time-Resolved Fluorescence (HTRF) binding assay. To be noted: PD-1-Ig (20 nM) / PD-L1-His (10 nM). Summed up:
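HTRF competition: compound pre-incubated 15 min with PD-L1-His (10 nM final), then PD-1-Ig (20 nM final) added for 15 min in dPBS, 0.1% BSA, 0.05% Tween-20. Detection with Eu-cryptate anti-Ig (1 nM) and APC anti-His (20 nM) antibodies.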
In general terms: Time-resolved FRET reads energy transfer from a long-lived donor to a nearby acceptor.

Turning to `CCCC[C@H]1C(=O)N(C)[C@@H](CCCC)C(=O)N[C@@H](CC(C)C)C(=O)NCCC[C@@H](N)C(=O)N[C@@H](Cc2ccc(C)cc2)C(=O)N2CCCC[C@H]2C(=O)N[C@@H](CC(N)=O)C(=O)N2CCC[C@H]2C(=O)N[C@@H](CN)C(=O)N[C@@H](CC(C)C)C(=O)N2C[C@H](O)C[C@H]2C(=O)N[C@@H](Cc2c[nH]c3ccccc23)C(=O)N[C@@H](CCN)C(=O)N[C@@H](Cc2cn(CC(=O)O)c3ccccc23)C(=O)N1C` [Example 10567] (H-[dOrn][Phe(4-Me)][Pip]NP[Dap]L[Hyp]W[Dab][Trp(1-CH2COOH)][NMeNle][NMeNle]L; lactam 1-C), the pIC50 (range classes) was 7.00 to 8.00.

Turning to `CCCC[C@H]1C(=O)N(C)[C@@H](CCCC)C(=O)N[C@@H](CC(C)C)C(=O)NCCC[C@@H](N)C(=O)N[C@@H](Cc2ccc(O)cc2)C(=O)N2CCCC[C@H]2C(=O)N[C@@H](CC(N)=O)C(=O)N2CCC[C@H]2C(=O)N[C@@H](CN)C(=O)N[C@@H](CCC(=O)O)C(=O)N2C[C@H](O)C[C@H]2C(=O)N[C@@H](Cc2c[nH]c3ccccc23)C(=O)N[C@@H](CCN)C(=O)N[C@@H](Cc2cn(CC(=O)O)c3ccccc23)C(=O)N1C` [Example 10568] (H-[dOrn]Y[Pip]NP[Dap]E[Hyp]W[Dab][Trp(1-CH2COOH)][NMeNle][NMeNle]L; lactam 1-C), the pIC50 (range classes) is 8.00 to 9.00.

Consider `CCCC[C@H]1C(=O)N(C)[C@@H](CCCC)C(=O)N[C@@H](CC(C)C)C(=O)NCCC[C@@H](N)C(=O)N[C@@H](Cc2ccc(OC)cc2)C(=O)N2CCCC[C@H]2C(=O)N[C@@H](CC(N)=O)C(=O)N2CCC[C@H]2C(=O)N[C@@H](CN)C(=O)N[C@@H](CCC(=O)O)C(=O)N2C[C@H](O)C[C@H]2C(=O)N[C@@H](Cc2c[nH]c3ccccc23)C(=O)N[C@@H](CCN)C(=O)N[C@@H](Cc2cn(CC(=O)O)c3ccccc23)C(=O)N1C` [Example 10569] (H-[dOrn]Y(Me)[Pip]NP[Dap]E[Hyp]W[Dab][Trp(1-CH2COOH)][NMeNle][NMeNle]L; lactam 1-C), for which the pIC50 (range classes) is 8.00 to 9.00.

Under “numeric values”, `CCCC[C@H]1C(=O)N(C)[C@@H](CCCC)C(=O)N[C@@H](CC(C)C)C(=O)NCCC[C@@H](N)C(=O)N[C@@H](Cc2ccc(F)cc2)C(=O)N2CCCC[C@H]2C(=O)N[C@@H](CC(N)=O)C(=O)N2CCC[C@H]2C(=O)N[C@@H](CN)C(=O)N[C@@H](CCC(=O)O)C(=O)N2C[C@H](O)C[C@H]2C(=O)N[C@@H](Cc2c[nH]c3ccccc23)C(=O)N[C@@H](CCN)C(=O)N[C@@H](Cc2cn(CC(=O)O)c3ccccc23)C(=O)N1C` [Example 10570] (H-[dOrn][Phe(4-F)][Pip]NP[Dap]E[Hyp]W[Dab][Trp(1-CH2COOH)][NMeNle][NMeNle]L; lactam 1-C) gave a pIC50 of 7.92.

Molecule `CCCC[C@H]1C(=O)N(C)[C@@H](CCCC)C(=O)N[C@@H](CC(C)C)C(=O)NCCC[C@@H](N)C(=O)N[C@@H](Cc2ccc(Cl)cc2)C(=O)N2CCCC[C@H]2C(=O)N[C@@H](CC(N)=O)C(=O)N2CCC[C@H]2C(=O)N[C@@H](CN)C(=O)N[C@@H](CCC(=O)O)C(=O)N2C[C@H](O)C[C@H]2C(=O)N[C@@H](Cc2c[nH]c3ccccc23)C(=O)N[C@@H](CCN)C(=O)N[C@@H](Cc2cn(CC(=O)O)c3ccccc23)C(=O)N1C` [Example 10571] (H-[dOrn][Phe(4-Cl)][Pip]NP[Dap]E[Hyp]W[Dab][Trp(1-CH2COOH)][NMeNle][NMeNle]L; lactam 1-C) had a pIC50 (range classes) of 8.00 to 9.00.

In the case of `CCCC[C@H]1C(=O)N(C)[C@@H](CCCC)C(=O)N[C@@H](CC(C)C)C(=O)NCCCCC(=O)N[C@@H](Cc2ccc(OC)cc2)C(=O)N2CCCC[C@H]2C(=O)N[C@@H](CC(=O)O)C(=O)N2CCC[C@H]2C(=O)N[C@@H](CN)C(=O)N[C@@H](CC(C)C)C(=O)N2C[C@H](O)C[C@H]2C(=O)N[C@@H](Cc2c[nH]c3ccccc23)C(=O)N[C@@H](CCN)C(=O)N[C@@H](Cc2cn(CC(=O)O)c3ccccc23)C(=O)N1C` [Example 10572] (cyclo([Ava]Y(Me)[Pip]DP[Dap]L[Hyp]W[Dab][Trp(1-CH2COOH)][NMeNle][NMeNle]L)), under “range classes”, the pIC50 is 8.00 to 9.00.
